Measured values taken from PubChem BioAssay AID1259407 (Chemical Carcinogenesis Research Information System (CCRIS), 2018).
The source made the active and inactive calls. No rule for the calls is given here.

System: CCRIS mutagenicity, Ames/micronucleus/aberration tests
Assay: CCRIS mutagenicity studies

## NCCO
Test System: AMES SALMONELLA TYPHIMURIUM, Strain/Indicator: TA98, Metabolic Activation: HAMSTER, LIVER, S-9, AROCLOR 1254 (10%), Method: PREINCUBATION
  mutagenic call: inactive; negative
Test System: AMES SALMONELLA TYPHIMURIUM, Strain/Indicator: TA98, Metabolic Activation: NONE, Method: PREINCUBATION
  mutagenic call: inactive; negative
Test System: AMES SALMONELLA TYPHIMURIUM, Strain/Indicator: TA98, Metabolic Activation: RAT LIVER S-9, PHENOBARBITAL AND BETA-NAPHTHOFLAVONE, Method: PREINCUBATION
  mutagenic call: inactive; negative
Test System: AMES SALMONELLA TYPHIMURIUM, Strain/Indicator: TA98, Metabolic Activation: RAT, LIVER, S-9, AROCLOR 1254 (10%), Method: PREINCUBATION
  mutagenic call: inactive; negative
Test System: AMES SALMONELLA TYPHIMURIUM, Strain/Indicator: TA100, Metabolic Activation: HAMSTER, LIVER, S-9, AROCLOR 1254 (10%), Method: PREINCUBATION
  mutagenic call: inactive; negative
Test System: AMES SALMONELLA TYPHIMURIUM, Strain/Indicator: TA100, Metabolic Activation: NONE, Method: PREINCUBATION
  mutagenic call: inactive; negative
Test System: AMES SALMONELLA TYPHIMURIUM, Strain/Indicator: TA100, Metabolic Activation: RAT LIVER S-9, PHENOBARBITAL AND BETA-NAPHTHOFLAVONE, Method: PREINCUBATION
  mutagenic call: inactive; negative
Test System: AMES SALMONELLA TYPHIMURIUM, Strain/Indicator: TA100, Metabolic Activation: RAT, LIVER, S-9, AROCLOR 1254 (10%), Method: PREINCUBATION
  mutagenic call: inactive; negative
Test System: AMES SALMONELLA TYPHIMURIUM, Strain/Indicator: TA1535, Metabolic Activation: HAMSTER, LIVER, S-9, AROCLOR 1254 (10%), Method: PREINCUBATION
  mutagenic call: inactive; negative
Test System: AMES SALMONELLA TYPHIMURIUM, Strain/Indicator: TA1535, Metabolic Activation: NONE, Method: PREINCUBATION
  mutagenic call: inactive; negative
Test System: AMES SALMONELLA TYPHIMURIUM, Strain/Indicator: TA1535, Metabolic Activation: RAT LIVER S-9, PHENOBARBITAL AND BETA-NAPHTHOFLAVONE, Method: PREINCUBATION
  mutagenic call: inactive; negative
Test System: AMES SALMONELLA TYPHIMURIUM, Strain/Indicator: TA1535, Metabolic Activation: RAT, LIVER, S-9, AROCLOR 1254 (10%), Method: PREINCUBATION
  mutagenic call: inactive; negative
Test System: AMES SALMONELLA TYPHIMURIUM, Strain/Indicator: TA1537, Metabolic Activation: HAMSTER, LIVER, S-9, AROCLOR 1254 (10%), Method: PREINCUBATION
  mutagenic call: inactive; negative
Test System: AMES SALMONELLA TYPHIMURIUM, Strain/Indicator: TA1537, Metabolic Activation: NONE, Method: PREINCUBATION
  mutagenic call: inactive; negative
Test System: AMES SALMONELLA TYPHIMURIUM, Strain/Indicator: TA1537, Metabolic Activation: RAT LIVER S-9, PHENOBARBITAL AND BETA-NAPHTHOFLAVONE, Method: PREINCUBATION
  mutagenic call: inactive; negative
Test System: AMES SALMONELLA TYPHIMURIUM, Strain/Indicator: TA1537, Metabolic Activation: RAT, LIVER, S-9, AROCLOR 1254 (10%), Method: PREINCUBATION
  mutagenic call: inactive; negative
Test System: AMES SALMONELLA TYPHIMURIUM, Strain/Indicator: TA1538, Metabolic Activation: NONE, Method: PREINCUBATION
  mutagenic call: inactive; negative
Test System: AMES SALMONELLA TYPHIMURIUM, Strain/Indicator: TA1538, Metabolic Activation: RAT LIVER S-9, PHENOBARBITAL AND BETA-NAPHTHOFLAVONE, Method: PREINCUBATION
  mutagenic call: inactive; negative
Test System: E.COLI, Strain/Indicator: WP2UVRA, Metabolic Activation: NONE, Method: PREINCUBATION
  mutagenic call: active; positive
Test System: E.COLI, Strain/Indicator: WP2UVRA, Metabolic Activation: RAT LIVER S-9, PHENOBARBITAL AND BETA-NAPHTHOFLAVONE, Method: PREINCUBATION
  mutagenic call: inactive; negative

## CCCCCCN(N=O)/C(N)=N/[N+](=O)[O-]
Test System: AMES SALMONELLA TYPHIMURIUM, Strain/Indicator: TA1535, Metabolic Activation: NONE, Method: STANDARD PLATE
  mutagenic call: active; positive
